Reference: US12458572B2, “Homogeneous liquid composition comprising 1,2-octanediol and use thereof” (Minasolve SAS, priority 2020, dated 2025)

Experiment: log POW, n-octanol/water partition coefficient, OECD Test No. 117
Format: physicochemical
Conditions: not given
Protocol: The partition coefficient between n-octanol and water, also called ‘log POW’ and performed according to OECD Test No. 117 at 25° C., of 1,2-octanediol is 2.1. […] A specialist trained in the art could therefore expect that a mixture of water, 1,2-octanediol and hydrophilic short chain alkanediols and/or alkanetriols would form a hydrophilic phase containing water, and a separate lipophilic phase containing 1,2-octanediol.
The miscibility of 1,2-octanediol with C3-C4 alkanediols is well-known. However, comparably large amounts of these diols are needed for lowering the melting point of 1,2-octanediol below 15° C. Furthermore, C3-C4 polyols are highly hydrophilic components with a log POW of ≤0, as detailed in the following table (Table 1).

Compared with `OCC(O)CO` [1,2,3-trihydroxypropane], `CC(O)CO` (stereo not shown) [1,2-propanediol] is higher in “log POW (25° C.)” value: −1.75 for the first, 1.07 for the second.

`OCCCCO` [1,4-butanediol] and `CC(O)C(C)O` (stereo not shown) [2,3-butanediol] are within 0.2 log units of each other in “log POW (25° C.)” value: −0.88 for the first, −0.92 for the second.

Same assay, conditions: OECD Test No. 117 at 25° C.

Going from `CCC(O)CO` (stereo not shown) [1,2-butanediol] to `CCCCCCC(O)CO` (stereo not shown) [1,2-octanediol], the “log POW (25° C.)” value rises from −0.59 to 2.1.

Going from `CC(O)CCO` (stereo not shown) [1,3-butanediol] to `CC(CO)CO` [2-methyl-1,3-propanediol], the “log POW (25° C.)” value rises from −0.92 to −0.6.

In the case of `OCCCO` [1,3-propanediol], the “log POW (25° C.)” value is reported as 0.71.

Experiment: Solubility in 1,2-octanediol
Format: physicochemical
Conditions: not given
Protocol: The solubility of water in 1,2-octanediol exceeds 30% at 40° C. However, mixtures of 1,2-octanediol with water tend to form highly viscous gels at ambient temperature which are hard to handle.
Glycerol, with glycerine and 1,2,3-trihydroxypropane as well-known alternative names, is a C3 alkanetriol. The solubility of glycerol in 1,2-octanediol exceeds 30%. However, mixtures of 1,2-octanediol and glycerol tend to be highly viscous and might separate at low temperatures. Furthermore, the addition of high amounts of glycerol to skin care formulations may cause a sticky skin-feel.

For `OCC(O)CO` [1,2,3-trihydroxypropane], the “solubility of glycerol in 1,2-octanediol” value was “exceeds 30%”.
